Source: ChEMBL document CHEMBL1201862, “PubChem BioAssay data set” (2004)
The source made the active and inactive calls.

What was measured:
[1] = target: T1, Carboxy-terminal domain RNA polymerase II polypeptide A small phosphatase 1 (Homo sapiens, UniProt Q9GZU7); test: inhibitors of CTDSP1, concentration-response testing, biochemical assay, absorbance-based, actives from ultra-high-throughput screening (AID 540297); type: functional
T1 sequence (Q9GZU7 whole entry): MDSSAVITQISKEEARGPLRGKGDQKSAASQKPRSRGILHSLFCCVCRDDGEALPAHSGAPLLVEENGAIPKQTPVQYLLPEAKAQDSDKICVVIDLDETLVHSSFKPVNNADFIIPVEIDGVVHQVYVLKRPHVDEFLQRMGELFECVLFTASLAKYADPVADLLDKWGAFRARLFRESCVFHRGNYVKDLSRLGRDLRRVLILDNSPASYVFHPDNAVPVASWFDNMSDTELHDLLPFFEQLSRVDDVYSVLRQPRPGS

cells [2] = type: functional, cell-based
cells [3] = type: functional, cell-based; remark: listed apart in the source
Large T antigen = Large T antigen (Simian virus 40, UniProt P03070); type: functional, Betapolyomavirus macacae;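 note: Confirmatory-stage PubChem screen for compounds that inhibit SV40 T antigen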
Large T antigen, sequence (P03070 whole entry): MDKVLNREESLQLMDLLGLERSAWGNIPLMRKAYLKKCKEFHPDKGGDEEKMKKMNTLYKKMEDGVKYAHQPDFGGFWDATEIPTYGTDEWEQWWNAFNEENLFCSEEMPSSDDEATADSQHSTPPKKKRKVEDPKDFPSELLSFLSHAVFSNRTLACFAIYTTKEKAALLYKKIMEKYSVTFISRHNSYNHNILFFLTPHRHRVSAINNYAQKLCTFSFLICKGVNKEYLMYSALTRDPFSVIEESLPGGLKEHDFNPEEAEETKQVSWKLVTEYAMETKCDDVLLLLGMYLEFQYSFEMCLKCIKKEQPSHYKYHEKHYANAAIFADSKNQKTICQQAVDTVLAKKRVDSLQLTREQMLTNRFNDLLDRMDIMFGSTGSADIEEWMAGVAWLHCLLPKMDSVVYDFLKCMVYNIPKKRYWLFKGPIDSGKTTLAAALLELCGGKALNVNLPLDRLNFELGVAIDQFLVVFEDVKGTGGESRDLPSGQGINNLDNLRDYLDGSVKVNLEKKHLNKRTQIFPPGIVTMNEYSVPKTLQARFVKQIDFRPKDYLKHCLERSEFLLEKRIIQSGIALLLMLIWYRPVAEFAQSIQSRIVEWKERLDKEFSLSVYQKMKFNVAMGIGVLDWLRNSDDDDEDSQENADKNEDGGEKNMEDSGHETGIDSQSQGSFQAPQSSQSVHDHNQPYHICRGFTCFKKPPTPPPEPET

[4] = Luminescence Cell-Based Dose Confirmation HTS to Identify Inhibitors of Platelet Dense Granule Release. [Related pubchem assays: 1663 (Primary HTS), 1678 (Summary of Project)]; type: functional
[5] = target: Luciferin 4-monooxygenase (Photinus pyralis, UniProt P08659); test: firefly luciferase enzyme inhibitors, dose response, biochemical, luminescence (AID 1891)
Luciferin 4-monooxygenase, sequence (P08659 whole entry): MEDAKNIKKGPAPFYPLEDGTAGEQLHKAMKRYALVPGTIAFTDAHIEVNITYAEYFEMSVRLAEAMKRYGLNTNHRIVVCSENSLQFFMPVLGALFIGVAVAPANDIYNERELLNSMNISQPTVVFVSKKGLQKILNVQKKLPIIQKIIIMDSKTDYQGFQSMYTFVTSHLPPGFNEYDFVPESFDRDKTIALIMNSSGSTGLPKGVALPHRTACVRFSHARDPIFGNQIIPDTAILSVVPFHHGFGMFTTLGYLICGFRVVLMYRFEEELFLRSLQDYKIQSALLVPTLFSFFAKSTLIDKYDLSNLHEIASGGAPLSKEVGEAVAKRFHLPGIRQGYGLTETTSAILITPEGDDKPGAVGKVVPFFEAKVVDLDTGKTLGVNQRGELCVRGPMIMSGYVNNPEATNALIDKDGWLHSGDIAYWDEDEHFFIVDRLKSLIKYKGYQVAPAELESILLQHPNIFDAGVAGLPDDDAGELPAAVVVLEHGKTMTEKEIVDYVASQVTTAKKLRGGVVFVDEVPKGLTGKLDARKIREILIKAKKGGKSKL

[6] = target: Induced myeloid leukemia cell differentiation protein Mcl-1 (Homo sapiens, UniProt Q07820); type: functional
Induced myeloid leukemia cell differentiation protein Mcl-1, sequence (Q07820 whole entry): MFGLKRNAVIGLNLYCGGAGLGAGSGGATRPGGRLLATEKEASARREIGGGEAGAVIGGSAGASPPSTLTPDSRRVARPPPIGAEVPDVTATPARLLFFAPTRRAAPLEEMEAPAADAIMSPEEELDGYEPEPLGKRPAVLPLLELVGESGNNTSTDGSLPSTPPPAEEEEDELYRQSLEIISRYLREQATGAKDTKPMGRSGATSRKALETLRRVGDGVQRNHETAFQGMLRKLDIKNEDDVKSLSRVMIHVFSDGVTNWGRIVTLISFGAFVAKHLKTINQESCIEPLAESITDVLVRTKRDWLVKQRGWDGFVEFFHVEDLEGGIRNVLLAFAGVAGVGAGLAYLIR

cells [7] = type: functional, cell-based; remark: listed apart in the source
[8] = target: T2, Trace amine-associated receptor 1 (Homo sapiens, UniProt Q96RJ0); test: Fluorescence-based cell-based high throughput dose response assay to identify agonists of the human trace amine associated receptor 1 (TAAR1).; type: functional
T2 sequence (Q96RJ0 whole entry): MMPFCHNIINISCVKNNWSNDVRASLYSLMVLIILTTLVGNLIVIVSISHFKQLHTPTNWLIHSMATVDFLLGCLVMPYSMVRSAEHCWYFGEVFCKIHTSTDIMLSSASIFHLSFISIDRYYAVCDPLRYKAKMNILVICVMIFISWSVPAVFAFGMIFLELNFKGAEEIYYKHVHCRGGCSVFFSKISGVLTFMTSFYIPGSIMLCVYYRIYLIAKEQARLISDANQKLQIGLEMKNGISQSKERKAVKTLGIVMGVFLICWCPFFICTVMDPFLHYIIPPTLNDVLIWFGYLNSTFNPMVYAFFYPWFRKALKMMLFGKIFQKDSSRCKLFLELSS

cells [9] = type: functional, cell-based; remark: listed apart in the source
[10] = target: T2, Trace amine-associated receptor 1; test: Counterscreen for agonists of the human trace amine associated receptor 1 (hTAAR1): Fluorescence-based cell-based high throughput dose response assay to identify hTAAR1 agonist that also desensitize TAAR1 receptor response.; type: functional
[11] = cytotoxicity in HEK-293T cells, dose response, cytotoxicity control for BCR NF-kB inhibitor project, luminescence, B-cell screen hits (AID 489021); type: functional, cell-based;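 note: HEK-293T cells carrying an NF-kB luciferase reporter; cells exposed to compound for about 14 hours before viability readout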
[12] = HEp-2 cell cytotoxicity, dose response, cytotoxicity control for RSV inhibitor project, HTS (AID 2410); type: functional; conditions: human respiratory syncytial virus
[13] = target: Heat shock protein HSP 90-alpha (Homo sapiens, UniProt P07900); type: functional, organism-based
Streptokinase A = target: T3, Streptokinase A (Streptococcus pyogenes serotype M1, UniProt P10520); test: S. pyogenes streptokinase expression inhibitors, potency, dose response, plasminogen activation absorbance, OD405 (AID 1914); type: functional, Streptococcus pyogenes M1 GAS;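 note: secreted streptokinase activity via plasminogen activation per viability signal from cell pellet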
T3 sequence (P10520 whole entry): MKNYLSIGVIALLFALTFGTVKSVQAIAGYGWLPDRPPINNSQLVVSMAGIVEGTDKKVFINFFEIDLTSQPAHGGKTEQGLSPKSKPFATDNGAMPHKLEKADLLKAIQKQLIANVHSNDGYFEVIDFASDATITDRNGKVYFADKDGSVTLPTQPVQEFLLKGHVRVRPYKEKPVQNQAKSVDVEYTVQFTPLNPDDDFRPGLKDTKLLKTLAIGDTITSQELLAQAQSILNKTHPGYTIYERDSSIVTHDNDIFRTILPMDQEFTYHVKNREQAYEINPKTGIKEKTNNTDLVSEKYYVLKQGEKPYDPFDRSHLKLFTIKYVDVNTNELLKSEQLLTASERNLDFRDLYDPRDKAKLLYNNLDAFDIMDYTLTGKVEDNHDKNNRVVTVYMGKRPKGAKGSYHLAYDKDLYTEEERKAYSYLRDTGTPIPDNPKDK

[14] = tested on: Streptococcus sp. 'group A'; test: growth inhibition of control SK(-) GAS strain, dose response, counter-screen for streptokinase expression inhibitor project, luminescence, kanamycin, BacTiterGlo, confirmation (AID 1900); type: functional, organism-based
Vero = test: cells; type: functional; conditions: Chlorocebus sabaeus
Streptococcus = test: Group A Streptococcus viability loss, dose response, counter-screen for streptokinase expression inhibitor project, luminescence, BacTiterGlo (AID 1915); type: functional, organism-based;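 note: potency for reduction of bacterial viability or growth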
[15] = inhibitors of intracellular T. cruzi replication, confirmation, NIH3T3 host cells, beta-gal luminescence (AID 2044); type: functional, cell-based;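 note: intracellular parasites grown in NIH/3T3 mouse fibroblasts as host cells; luminescent beta-galactosidase reporter signal from transgenic T. cruzi replicating inside host cells; inhibitors lower the luminescence signal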
[16] = cytotoxicity toward NIH3T3 fibroblasts, dose response, counter-screen, cell-based, ATP luminescence, mouse fibroblasts (AID 2010); type: functional;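 note: cells exposed to compound for about 90 hours before reading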
[17] = Shn3 3'UTR reporter inhibitors, dose response, cell-based, Clone20 osteoblasts, firefly luciferase, cherry-picked (AID 624132); type: functional;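 note: firefly luciferase luminescence from reporter carrying the Shn3 3'UTR in osteoblasts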
[18] = Luminescence Cell-Based Dose Retest to Confirm Inhibitors of Cancer Stem Cells. [Related pubchem assays (depositor defined):AID2717, AID2721]; type: functional; conditions: Homo sapiens
[19] = control 3'UTR Renilla luciferase suppression, dose response, counter-screen for Shn3 inhibitor project, cell-based, Clone20-Shn3RL, cherry-picked (AID 624133); type: functional
[20] = HepG2 cell cytotoxicity, dose response, cytotoxicity control for Shn3 inhibitor project, CellTiter-Glo, cherry-picked (AID 624134); type: functional, cell-based
BJ [21] = test: cells; type: functional, cell-based; conditions: Homo sapiens
[22] = cytotoxicity toward DRD oncogenic fibroblasts, dose response, cell-based, non-viral oncogenic, luminescence (AID 1934); type: functional; conditions: Homo sapiens
BJ [23] = test: cytotoxicity toward BJ-TERT-LT-ST fibroblasts, dose response, cell-based, RAS-independent, luminescence (AID 1935); type: functional; conditions: Homo sapiens;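 note: BJ fibroblasts immortalized with TERT plus LT and ST oncogenes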
BJ [24] = test: cytotoxicity toward BJ-TERT fibroblasts, dose response, cell-based, RAS-independent, luminescence (AID 1933); type: functional; conditions: Homo sapiens
Caspase-6 = target: T4, Caspase-6 (Homo sapiens, UniProt P55212); test: human caspase-6 inhibitors, dose response, biochemical, VEID-R110 fluorescence, cherry-pick (AID 720632)
T4 sequence (P55212 whole entry): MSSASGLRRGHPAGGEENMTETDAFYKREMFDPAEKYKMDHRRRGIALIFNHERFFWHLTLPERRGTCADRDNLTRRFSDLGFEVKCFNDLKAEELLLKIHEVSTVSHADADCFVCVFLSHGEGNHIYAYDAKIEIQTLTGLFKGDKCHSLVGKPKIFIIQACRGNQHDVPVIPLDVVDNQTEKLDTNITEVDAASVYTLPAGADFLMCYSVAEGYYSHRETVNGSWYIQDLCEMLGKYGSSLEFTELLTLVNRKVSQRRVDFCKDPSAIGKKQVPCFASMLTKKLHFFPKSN

[25] = target: T5, Rac GTPase-activating protein 1 (Homo sapiens, UniProt Q9H0H5); test: MgcRacGAP GTPase-activating activity inhibitors, confirmation, biochemical, ADP Hunter fluorescence, primary and confirmatory (AID 624330); type: functional
T5 sequence (Q9H0H5 whole entry): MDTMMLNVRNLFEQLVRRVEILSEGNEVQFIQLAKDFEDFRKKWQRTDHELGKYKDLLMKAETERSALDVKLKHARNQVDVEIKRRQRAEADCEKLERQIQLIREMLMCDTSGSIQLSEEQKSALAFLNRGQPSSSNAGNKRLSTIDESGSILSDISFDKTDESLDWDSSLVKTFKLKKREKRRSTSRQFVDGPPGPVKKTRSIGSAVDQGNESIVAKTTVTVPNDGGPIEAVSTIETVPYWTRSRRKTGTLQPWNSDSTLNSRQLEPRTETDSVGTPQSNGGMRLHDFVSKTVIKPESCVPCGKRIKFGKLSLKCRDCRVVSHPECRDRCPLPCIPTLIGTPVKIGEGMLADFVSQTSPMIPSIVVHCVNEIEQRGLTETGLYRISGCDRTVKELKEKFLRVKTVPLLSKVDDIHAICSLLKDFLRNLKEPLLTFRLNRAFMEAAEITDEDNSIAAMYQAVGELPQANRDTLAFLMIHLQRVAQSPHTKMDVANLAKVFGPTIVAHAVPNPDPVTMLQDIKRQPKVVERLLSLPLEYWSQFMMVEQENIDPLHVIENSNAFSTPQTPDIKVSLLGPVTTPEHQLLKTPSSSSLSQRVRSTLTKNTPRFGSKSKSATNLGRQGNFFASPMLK

COc1ccc(-c2nnc(NC(=O)c3cccs3)s2)c(OC)c1
IC50 [1]: 3.57 µM (active)

CCOC(=O)c1c(C)[nH]c(C)c1S(=O)(=O)N1c2ccccc2CC1C (stereo unspecified)
EC50 (cells [2]): > 350 µM (not active)
EC50 (cells [3]): > 350 µM (not active)

CC(C)C(=O)N1CCN(c2nc3ccc(Cl)cc3s2)CC1
EC50 (cells [2]): > 350 µM (not active)
EC50 (cells [3]): > 350 µM (not active)

N/C(=N\N=C\c1ccc(O)c(O)c1)c1nonc1N
IC50 (Large T antigen): 23.4 µM (active)
EC50 [4]: 1.74 µM (active)
EC50 [5]: 1.67 µM (active)

O=S(=O)(Cc1cc(Cl)nc(-c2ccncc2)n1)c1ccccc1
IC50 [6]: 6.12 µM (active)

O=C(CSC(=S)N1CCCC1)NCCc1ccccc1
EC50 (cells [7]): > 29.9 µM (inactive)
EC50 [8]: 1.96 µM (active)
IC50 (cells [9]): > 29.9 µM (inactive)
IC50 [10]: 1.19 µM (active)

Cc1nc([N+](=O)[O-])c(Sc2nc3cc([N+](=O)[O-])ccc3[nH]2)n1Cc1ccccc1
IC50 [11]: > 80 µM (inactive)
CC50 [12]: 12.6 µM (active)

OCCNc1nc(Nc2ccccc2)nc(Nc2ccccc2)n1
IC50 [6]: 24.3 µM (not active)

O=C(N[C@H](C(=O)N1CCC[C@H]1C(=O)NCCc1ccccc1Cl)c1ccccc1)c1ccco1
EC50 (cells [7]): > 29.9 µM (inactive)
EC50 [8]: 10.3 µM (inactive)
IC50 (cells [9]): > 29.9 µM (inactive)
IC50 [10]: > 29.9 µM (inactive)

Cc1cc(/C=C2\SC(=S)N=C2O)c(C)n1-c1cccc(O)c1
AC50 [13]: 8.8 µM (active)
EC50 (Streptokinase A): > 150 µM (not active)

CNC(=O)c1cccn(Cc2ccc(C(F)(F)F)cc2)c1=O
IC50 [11]: > 80 µM (inactive)

Cc1oc(-c2ccccc2Cl)nc1Cn1cccc1C1=NC(c2ccccc2)CO1 (stereo unspecified)
EC50 [14]: > 150 µM (not active)
EC50 (Streptokinase A): > 50 µM (not active)
CC50 (Vero): > 25 µM (active)
EC50 (Streptococcus): > 150 µM (not active)

CC(C)c1c(O)ccc2c1CC[C@H]1C(C)(C)CCC[C@]21C [TOTAROL]
AC50 [13]: 3.79 µM (active)

C[Se]C[C@@H](N)C(=O)O
IC50 [1]: 15 µM (active)

[O-][Cl+3]([O-])([O-])[O-].c1ccc(-c2ccc(-c3n(-c4ccccn4)c4ccccc4[n+]3-c3ccccn3)cc2)cc1
IC50 [6]: > 54 µM (not active)
EC50 [15]: 0.832 µM (active)
EC50 [16]: > 60 µM (not active)

COC(=O)c1ccc(COc2ccccc2/C=N/NS(=O)(=O)c2ccccc2)cc1
EC50 (cells [2]): > 350 µM (not active)
EC50 (cells [3]): > 350 µM (not active)

CC(C)N(CCC(=O)c1ccc2ccccc2c1)Cc1ccccc1
AC50 [17]: 4.22 µM (active)
AC50 [13]: 9.38 µM (active)
AC50 [18]: 5.58 µM (active)
AC50 [19]: 17.3 µM (active)
AC50 [20]: > 70 µM (inactive)

COc1ccccc1N1CN(CCc2ccccc2)CN=C1S
EC50 (cells [7]): > 29.9 µM (inactive)
EC50 [8]: 1.28 µM (active)
IC50 (cells [9]): > 29.9 µM (inactive)
IC50 [10]: 6.11 µM (active)

CCOc1ccc(/C=C2\SC(=S)N(CCCC(=O)NCCCN3CCOCC3)C2=O)cc1
EC50 (BJ [21]): > 150 µM (not active)
EC50 [22]: > 150 µM (not active)
IC50 [11]: > 80 µM (inactive)
EC50 (BJ [23]): > 150 µM (not active)
EC50 (BJ [24]): 20.1 µM (active)

O=C(CC1C(=O)NCCN1CCCc1ccccc1)NCCc1ccccc1Cl (stereo unspecified)
EC50 (cells [7]): > 29.9 µM (inactive)
EC50 [8]: 1.51 µM (active)
IC50 (cells [9]): > 29.9 µM (inactive)
IC50 [10]: 5.21 µM (active)

Cc1cc(-c2nnc(S)n2/N=C/c2c[nH]c3ccccc23)[nH]n1
IC50 (Large T antigen): 64 µM (active)

CSc1nnc(C)c(/C=C/Nc2ccc(F)cc2F)n1
IC50 [1]: 13.3 µM (active)

O=c1c2ccccc2[nH]c2ccc(O)cc12
IC50 (Large T antigen): 9.16 µM (active)
AC50 (Caspase-6): 17.7 µM (active)

Cc1ccc(C(=O)CSc2nnc(COc3cc(C)cc(C)c3)o2)cc1
IC50 [11]: > 80 µM (inactive)

Cc1cc(O)ccc1N/C=C1\CCCC1=O
IC50 (Large T antigen): 29.8 µM (active)
IC50 [25]: 22.7 µM (active)

O=C(NCN1CCc2ccccc2C1)c1cnccn1
EC50 (cells [7]): > 29.9 µM (inactive)
EC50 [8]: 2.14 µM (active)
IC50 (cells [9]): > 29.9 µM (inactive)
IC50 [10]: 8.03 µM (active)

Cc1cccc(NC(=O)CSc2nc3nc(O)cc(O)c3s2)c1
IC50 [1]: 15.9 µM (active)

O=C(c1cc(Br)ccc1Cl)N1CCC2(CC1)OCCO2
EC50 (cells [2]): 67 µM (active)
EC50 (cells [3]): > 350 µM (not active)
